Data: publication PMC11078216, “Discovery of potent and selective activity-based probes (ABPs) for the deubiquitinating enzyme USP30” (RSC Chemical Biology, 2024)
One block for each compound: values may come before it.

Key:
ALDH1A1 = biological target: T1, ALDH1A1 (Homo sapiens, UniProt P00352); assay: ABPP chemical proteomics (LC-MS/MS) in HEK293T cells; type: cell-based
T1 construct: endogenous in cells; host or cells: HEK293T
Method: (§1) To explore the selectivity of IMP-2587 and IMP-2586 across the whole proteome, we performed quantitative activity-based protein profiling (ABPP) in HEK293T cells following treatment with IMP-2587 or IMP-2586 (Fig. 3a). After ABP incubation, cells were lysed, and probe-labelled proteins were ligated to biotinylated capture reagents.[27] […] USP30 was outcompeted by corresponding parent inhibitors for each ABP (Fig. 5b and d and Tables S3 and S5, ESI ^†), confirming the high potency and rapid engagement of IMP-2587 and IMP-2586 in cells. […] DESI1 and DESI2 are small ubiquitin-related modifier (SUMO) proteases,[3,29–32] and IMP-2587 and IMP-2586 may offer a starting point for future development of DESI ABPs. […]
(§2) d) Live cell probe incubation, lysate click chemistry and precipitation 6-well HEK293T cells were incubated with media containing compounds ABP 2 and ABP 4 at indicated concentrations for 1 h at 37 °C. The cells were washed with PBS and lysed with lysis buffer (50 μL (1% (v/v) Triton X-100, 0.1% (w/v) sodium dodecyl sulfate (SDS), EDTA-free complete protease inhibitor cocktail (1×, Roche) in PBS on ice for 10 min. The lysates were scraped and transferred to corresponding Lo-Bind Eppendorfs. Each lysate was sonicated for 1 minute, and the samples centrifuges at 5,000 x g at 4 °C for 5 minutes to pellet insoluble cellular debris. The supernatant was collected, and protein concentration was determined using the DC Protein Assay (Bio-Rad) as per manufacturer’s instructions, and normalised to lowest concentrated sample (e.g. 1 mg/mL, using lysis buffer). The following “click mixture” was prepared separately, preparing 6 μL for every 100 μL of […]
(§3) Capture reagent (AzRB/AzT for ABP 2, YnT/YnB for ABP 4 10 mM in DMSO, 1 vol; final concentration […]
(§4) CuSO4 (50 mM in water, 2 vol; final concentration in reaction 1 mM)
(§5) TCEP (50 mM in water, 2 vol; final concentration in reaction 1 mM)
(§6) TBTA (10 mM in DMSO, 1 vol; final concentration in reaction 100 µM)
(§7) The click mixture was vortexed and incubated at room temperature for 2 min before 6 μL of the mixture was added to every 100 μL of lysate. The reaction mixtures were shaken at room temperature for 1 h before being quenched with EDTA (500 mM in H2O) to a final concentration of 10 mM.
(§8) Proteins were precipitated by adding H2O (1 vol), MeOH (2 vol) and CHCl3 (0.5 vol), vortexing briefly then centrifuging at 17,000 × g for 5 min. The top H2O/MeOH layer was discarded and the middle layer of protein pellet and lower CHCl3 layer retained. The suspension was washed with MeOH (300 μL), and sonicated to break up the pellet. The proteins were pelleted by centrifugation at 10,000–17000 × g for 5–10 min or until a compact pellet was formed. The protein pellet was washed once more with MeOH (1 mL). The pellet was resuspended by sonicating and completely dissolving in 1% (w/v) SDS in PBS (to 5 mg/mL protein) before being made up to 1 mg/mL protein with PBS.
(§9) The lysate samples (10-20 μg) were mixed with 4× Laemmli sample loading buffer (250 mM Tris -HCl pH 6.8, 30% (v/v) glycerol, 10% (w/v) SDS, 0.05% (w/v) bromophenol blue) supplemented with 20% v/v β-mercaptoethanol (BME) and boiled for 10 min at 95 °C. The resulting protein samples were separated according to the protocol in section 3.2.c. Gel were imaged on a Typhoon imager (GE Healthcare; λEx 532 nm, λEm 575 nm for TAMRA. For protein loading quantification, gels were stained with Coomassie blue staining solution overnight, rinsed with water and imaged on an ImageQuant™ LAS 4000 imager (GE Healthcare). f) Neutravidin biotin enrichment (Affinity pull-down)
(§10) Click chemistry and precipitation steps were carried out as described in section 3.2.d, on at least 400ug of protein per sample. The pellet was resuspended by sonicating and completely dissolving in 1% (w/v) SDS in HEPES 50 mM pH 8.0, before being made up to 1 mg/mL protein with HEPES 50 mM pH 8.0 to […]
(§11) achieve a final concentration of 0.2% SDS. 20uL of each samples was collected as TL (Total lysate) […]
(§12) samples. […]

FAAH2 = biological target: T2, FAAH2 (Homo sapiens, UniProt Q6GMR7); assay: as above; type: cell-based
T2 construct: endogenous in cells; host or cells: HEK293T
Method: as §1, §2, §3, §4, §5, §6, §7, §8, §9, §10, §11, §12

ALDH3A2 = biological target: T3, ALDH3A2 (Homo sapiens, UniProt P51648); assay: as above; type: cell-based
T3 construct: endogenous in cells; host or cells: HEK293T
Method: as §1, §2, §3, §4, §5, §6, §7, §8, §9, §10, §11, §12

PARK7 = biological target: T4, PARK7 (Homo sapiens, UniProt Q99497); assay: as above; type: cell-based; settings: 30 nM, 10 min
T4 construct: endogenous in cells; host or cells: HEK293T
Method: as §1, §2, §3, §4, §5, §6, §7, §8, §9, §10, §11, §12

FAAH = biological target: T5, FAAH (Homo sapiens, UniProt O00519); assay: as above; type: cell-based
T5 construct: endogenous in cells; host or cells: HEK293T
Method: as §1, §2, §3, §4, §5, §6, §7, §8, §9, §10, §11, §12

MRPS2 = biological target: T6, MRPS2 (Homo sapiens, UniProt Q9Y399); assay: as above; type: cell-based
T6 construct: endogenous in cells; host or cells: HEK293T
Method: as §1, §2, §3, §4, §5, §6, §7, §8, §9, §10, §11, §12

ABHD6 = biological target: T7, ABHD6 (Homo sapiens, UniProt Q9BV23); assay: as above; type: cell-based
T7 construct: endogenous in cells; host or cells: HEK293T
Method: as §1, §2, §3, §4, §5, §6, §7, §8, §9, §10, §11, §12

NIT1 = biological target: T8, NIT1 (Homo sapiens, UniProt Q86X76); assay: as above; type: cell-based
T8 construct: endogenous in cells; host or cells: HEK293T
Method: as §1, §2, §3, §4, §5, §6, §7, §8, §9, §10, §11, §12

ALDH9A1 = biological target: T9, ALDH9A1 (Homo sapiens, UniProt P49189); assay: as above; type: cell-based
T9 construct: endogenous in cells; host or cells: HEK293T
Method: as §1, §2, §3, §4, §5, §6, §7, §8, §9, §10, §11, §12

UCHL1 = biological target: T10, UCHL1 (Homo sapiens, UniProt P09936); assay: Cross-screening against unrelated DUB UCHL1; type: biochemical; settings: Table S1, ESI
T10 sequence (P09936 1-223): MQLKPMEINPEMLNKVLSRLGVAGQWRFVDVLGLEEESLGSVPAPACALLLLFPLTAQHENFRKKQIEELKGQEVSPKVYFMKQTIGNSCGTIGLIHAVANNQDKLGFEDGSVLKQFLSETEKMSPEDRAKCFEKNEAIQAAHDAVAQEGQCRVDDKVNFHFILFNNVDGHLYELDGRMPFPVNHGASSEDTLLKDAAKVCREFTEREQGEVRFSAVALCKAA

PPAT = biological target: T11, PPAT (Homo sapiens, UniProt Q06203); assay: ABPP chemical proteomics (LC-MS/MS) in HEK293T cells; type: cell-based
T11 construct: endogenous in cells; host or cells: HEK293T
Method: as §1, §2, §3, §4, §5, §6, §7, §8, §9, §10, §11, §12

SRP68 = biological target: T12, SRP68 (Homo sapiens, UniProt Q9UHB9); assay: as above; type: cell-based
T12 construct: endogenous in cells; host or cells: HEK293T
Method: as §1, §2, §3, §4, §5, §6, §7, §8, §9, §10, §11, §12

PGAP1 = biological target: T13, PGAP1 (Homo sapiens, UniProt Q75T13); assay: as above; type: cell-based
T13 construct: endogenous in cells; host or cells: HEK293T
Method: as §1, §2, §3, §4, §5, §6, §7, §8, §9, §10, §11, §12

[1] = IMP-2587 labelling vs DMSO, 30 nM, 10 min, HEK293T (Table S2, Fig.5a)
[2] = compound 1 out-competition with IMP-2587 labelling, HEK293T (Table S3, Fig.5b)
[3] = IMP-2586 labelling vs DMSO, 30 nM, 10 min, HEK293T (Table S4, Fig.5c)
[4] = compound 3 out-competition with IMP-2586 labelling, HEK293T (Table S5, Fig.5d)

T5 sequence (O00519 whole entry): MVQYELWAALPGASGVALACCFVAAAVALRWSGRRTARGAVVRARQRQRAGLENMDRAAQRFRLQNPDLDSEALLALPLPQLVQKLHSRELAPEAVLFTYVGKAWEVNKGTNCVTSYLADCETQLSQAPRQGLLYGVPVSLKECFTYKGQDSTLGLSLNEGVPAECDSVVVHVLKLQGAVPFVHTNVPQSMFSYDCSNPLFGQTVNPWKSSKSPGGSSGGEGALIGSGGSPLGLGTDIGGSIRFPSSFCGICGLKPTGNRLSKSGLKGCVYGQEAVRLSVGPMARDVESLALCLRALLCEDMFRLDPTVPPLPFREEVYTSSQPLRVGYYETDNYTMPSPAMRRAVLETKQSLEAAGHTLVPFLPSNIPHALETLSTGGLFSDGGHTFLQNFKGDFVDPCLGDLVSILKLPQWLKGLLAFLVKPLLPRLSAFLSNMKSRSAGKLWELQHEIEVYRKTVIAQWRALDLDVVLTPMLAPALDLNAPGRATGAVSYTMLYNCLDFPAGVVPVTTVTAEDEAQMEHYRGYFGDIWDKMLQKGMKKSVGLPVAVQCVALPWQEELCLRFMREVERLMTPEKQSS
T4 sequence (Q99497 whole entry): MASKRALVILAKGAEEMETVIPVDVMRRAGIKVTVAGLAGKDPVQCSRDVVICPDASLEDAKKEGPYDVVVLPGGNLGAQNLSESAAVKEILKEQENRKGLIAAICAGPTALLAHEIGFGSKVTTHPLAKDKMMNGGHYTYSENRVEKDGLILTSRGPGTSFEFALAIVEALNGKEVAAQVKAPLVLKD
T7 sequence (Q9BV23 whole entry): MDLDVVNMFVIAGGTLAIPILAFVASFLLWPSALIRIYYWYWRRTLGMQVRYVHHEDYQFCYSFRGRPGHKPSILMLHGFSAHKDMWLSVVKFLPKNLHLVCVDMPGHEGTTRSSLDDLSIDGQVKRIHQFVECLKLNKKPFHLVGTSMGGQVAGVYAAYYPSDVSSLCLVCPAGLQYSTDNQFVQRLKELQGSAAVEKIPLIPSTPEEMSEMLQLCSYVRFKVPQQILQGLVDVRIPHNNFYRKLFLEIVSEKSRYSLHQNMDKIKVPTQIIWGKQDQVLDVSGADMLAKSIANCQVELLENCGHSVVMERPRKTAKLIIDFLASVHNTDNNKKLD
T13 sequence (Q75T13 whole entry): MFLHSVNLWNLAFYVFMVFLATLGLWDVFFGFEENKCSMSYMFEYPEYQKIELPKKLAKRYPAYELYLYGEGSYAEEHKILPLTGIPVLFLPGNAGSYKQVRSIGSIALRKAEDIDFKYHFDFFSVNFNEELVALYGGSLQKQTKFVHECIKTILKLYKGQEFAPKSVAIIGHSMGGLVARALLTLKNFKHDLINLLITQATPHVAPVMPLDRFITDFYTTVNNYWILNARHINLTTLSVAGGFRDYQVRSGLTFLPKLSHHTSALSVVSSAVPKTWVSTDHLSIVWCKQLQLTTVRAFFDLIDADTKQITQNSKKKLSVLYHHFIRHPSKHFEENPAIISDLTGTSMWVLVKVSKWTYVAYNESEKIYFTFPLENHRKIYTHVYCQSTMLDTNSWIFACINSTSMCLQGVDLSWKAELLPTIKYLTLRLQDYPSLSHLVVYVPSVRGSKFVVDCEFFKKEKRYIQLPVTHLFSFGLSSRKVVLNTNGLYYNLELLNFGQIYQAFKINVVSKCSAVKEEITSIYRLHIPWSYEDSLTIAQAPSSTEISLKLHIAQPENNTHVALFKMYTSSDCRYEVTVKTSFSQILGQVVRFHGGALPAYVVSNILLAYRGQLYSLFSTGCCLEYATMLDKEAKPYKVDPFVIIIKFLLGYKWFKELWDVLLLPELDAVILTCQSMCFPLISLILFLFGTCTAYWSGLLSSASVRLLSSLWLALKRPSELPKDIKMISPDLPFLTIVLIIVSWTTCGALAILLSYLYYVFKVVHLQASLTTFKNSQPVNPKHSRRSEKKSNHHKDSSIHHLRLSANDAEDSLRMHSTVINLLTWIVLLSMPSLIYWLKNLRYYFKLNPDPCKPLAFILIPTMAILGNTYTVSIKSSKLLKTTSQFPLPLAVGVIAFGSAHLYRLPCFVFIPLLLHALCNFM
T2 sequence (Q6GMR7 whole entry): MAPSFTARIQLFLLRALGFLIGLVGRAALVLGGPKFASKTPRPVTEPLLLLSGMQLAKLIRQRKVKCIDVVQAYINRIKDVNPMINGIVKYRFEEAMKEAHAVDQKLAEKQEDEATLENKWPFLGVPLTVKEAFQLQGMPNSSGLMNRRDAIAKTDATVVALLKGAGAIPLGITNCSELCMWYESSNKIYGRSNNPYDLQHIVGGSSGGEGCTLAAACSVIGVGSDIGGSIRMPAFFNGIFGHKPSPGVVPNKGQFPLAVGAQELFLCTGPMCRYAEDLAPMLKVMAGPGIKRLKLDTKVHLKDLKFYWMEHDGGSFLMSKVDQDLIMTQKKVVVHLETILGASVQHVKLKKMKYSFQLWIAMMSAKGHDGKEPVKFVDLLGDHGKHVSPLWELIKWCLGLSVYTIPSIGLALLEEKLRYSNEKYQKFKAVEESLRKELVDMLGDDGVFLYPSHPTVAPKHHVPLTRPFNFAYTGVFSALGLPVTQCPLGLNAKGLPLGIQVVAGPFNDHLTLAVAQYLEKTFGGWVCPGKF
T11 sequence (Q06203 12-517): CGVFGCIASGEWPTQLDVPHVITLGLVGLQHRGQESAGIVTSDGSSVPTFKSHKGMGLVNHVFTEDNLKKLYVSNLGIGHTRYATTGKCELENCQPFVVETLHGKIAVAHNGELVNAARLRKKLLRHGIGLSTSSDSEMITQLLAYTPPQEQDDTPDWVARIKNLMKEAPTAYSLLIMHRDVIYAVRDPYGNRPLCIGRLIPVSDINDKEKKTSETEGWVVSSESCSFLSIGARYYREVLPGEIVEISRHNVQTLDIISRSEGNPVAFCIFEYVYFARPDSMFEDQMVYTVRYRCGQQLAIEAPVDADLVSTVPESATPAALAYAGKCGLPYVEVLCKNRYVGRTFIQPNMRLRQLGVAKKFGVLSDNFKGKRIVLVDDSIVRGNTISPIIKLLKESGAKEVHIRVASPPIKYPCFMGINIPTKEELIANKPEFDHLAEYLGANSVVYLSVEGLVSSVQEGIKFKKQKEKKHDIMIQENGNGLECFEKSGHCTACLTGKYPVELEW
T1 sequence (P00352 whole entry): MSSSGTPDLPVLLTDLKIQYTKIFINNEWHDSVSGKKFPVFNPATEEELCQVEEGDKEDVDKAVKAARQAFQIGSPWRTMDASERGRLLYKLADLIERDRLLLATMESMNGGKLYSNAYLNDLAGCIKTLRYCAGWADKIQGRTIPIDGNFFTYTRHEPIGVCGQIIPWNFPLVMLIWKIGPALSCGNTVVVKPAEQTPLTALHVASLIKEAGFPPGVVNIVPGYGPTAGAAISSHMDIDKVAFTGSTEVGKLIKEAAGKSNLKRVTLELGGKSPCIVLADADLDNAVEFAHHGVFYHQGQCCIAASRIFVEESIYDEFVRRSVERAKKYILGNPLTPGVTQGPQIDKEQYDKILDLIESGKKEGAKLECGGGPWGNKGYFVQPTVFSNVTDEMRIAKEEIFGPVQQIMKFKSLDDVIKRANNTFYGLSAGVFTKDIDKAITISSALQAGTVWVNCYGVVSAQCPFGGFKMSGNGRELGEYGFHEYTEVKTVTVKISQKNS
T12 sequence (Q9UHB9 whole entry): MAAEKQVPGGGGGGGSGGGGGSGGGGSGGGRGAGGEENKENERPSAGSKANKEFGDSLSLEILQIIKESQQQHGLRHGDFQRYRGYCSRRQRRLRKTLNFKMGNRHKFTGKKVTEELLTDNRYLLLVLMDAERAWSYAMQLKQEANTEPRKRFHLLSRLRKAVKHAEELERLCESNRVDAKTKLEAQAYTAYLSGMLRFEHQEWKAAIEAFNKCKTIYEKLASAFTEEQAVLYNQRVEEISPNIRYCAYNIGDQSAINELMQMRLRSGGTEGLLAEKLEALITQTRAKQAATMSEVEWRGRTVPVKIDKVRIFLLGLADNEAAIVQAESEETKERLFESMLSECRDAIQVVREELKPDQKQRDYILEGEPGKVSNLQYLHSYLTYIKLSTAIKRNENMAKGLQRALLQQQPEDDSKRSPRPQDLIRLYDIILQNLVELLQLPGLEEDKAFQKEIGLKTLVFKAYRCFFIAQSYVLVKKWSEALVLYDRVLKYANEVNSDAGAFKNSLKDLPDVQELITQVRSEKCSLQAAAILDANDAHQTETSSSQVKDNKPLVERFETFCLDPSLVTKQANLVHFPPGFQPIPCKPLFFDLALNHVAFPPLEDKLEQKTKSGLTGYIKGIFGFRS
T9 sequence (P49189 whole entry): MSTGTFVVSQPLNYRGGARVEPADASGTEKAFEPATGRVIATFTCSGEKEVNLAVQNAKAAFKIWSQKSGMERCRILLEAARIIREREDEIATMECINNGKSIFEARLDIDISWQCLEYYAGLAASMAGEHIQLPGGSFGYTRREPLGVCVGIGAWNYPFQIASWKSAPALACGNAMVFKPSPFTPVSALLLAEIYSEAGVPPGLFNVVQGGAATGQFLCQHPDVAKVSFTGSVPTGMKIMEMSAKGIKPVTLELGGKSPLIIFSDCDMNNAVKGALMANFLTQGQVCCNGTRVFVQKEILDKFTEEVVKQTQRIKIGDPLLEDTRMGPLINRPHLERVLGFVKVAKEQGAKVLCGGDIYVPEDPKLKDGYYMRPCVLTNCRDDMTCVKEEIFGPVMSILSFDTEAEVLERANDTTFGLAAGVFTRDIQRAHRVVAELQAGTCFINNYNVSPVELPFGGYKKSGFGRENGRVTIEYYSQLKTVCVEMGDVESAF

SMILES: C#Cc1cccc(-c2cc(NC(=O)CC3CCN(C#N)C3)on2)c1 (centres unmarked) [IMP-2587]
Difference (log2 fold change of enrichment) (ALDH1A1; [1]): 2.95
Difference (log2 fold change of enrichment) (FAAH2; [1]): 4.10
Difference (log2 fold change of enrichment) (ALDH3A2; [1]): 2.95
Difference (log2 fold change of enrichment) (PARK7; IMP-2587 labelling vs DMSO, HEK293T (Table S2, Fig.5a)): 1.32
Difference (log2 fold change of enrichment) (FAAH; [1]): 3.97
Difference (log2 fold change of enrichment) (MRPS2; [1]): 2.58
Difference (log2 fold change of enrichment) (ABHD6; [1]): 2.06
Difference (log2 fold change of enrichment) (NIT1; [1]): 2.01
Difference (log2 fold change of enrichment) (ALDH9A1; [1]): 1.70
activity against UCHL1 (cross-screening) (UCHL1): no activity

Difference (log2 fold change of enrichment) (ALDH1A1; [2]): -2.59
Difference (log2 fold change of enrichment) (FAAH2; [2]): -3.82
Difference (log2 fold change of enrichment) (ALDH3A2; [2]): -1.88
Difference (log2 fold change of enrichment) (FAAH; [2]): -3.46
Difference (log2 fold change of enrichment) (MRPS2; [2]): -2.58
Difference (log2 fold change of enrichment) (ABHD6; [2]): -1.95
Difference (log2 fold change of enrichment) (NIT1; [2]): -1.86
Difference (log2 fold change of enrichment) (ALDH9A1; [2]): -1.60
SMILES: N#CN1CC[C@H](CC(=O)Nc2cc(-c3cccc(Cl)c3)no2)C1 [compound 1, reference compound]

SMILES: N#CN1CC[C@@H](NC(=O)c2cc(-c3ccccc3Oc3ccc(N=[N+]=[N-])cc3)n[nH]2)C1 [IMP-2586]
Difference (log2 fold change of enrichment) (PARK7; IMP-2586 labelling vs DMSO, HEK293T (Table S4, Fig.5c)): 1.30
Difference (log2 fold change of enrichment) (PPAT; [3]): 0.83
Difference (log2 fold change of enrichment) (SRP68; [3]): 0.45
Difference (log2 fold change of enrichment) (PGAP1; [3]): 2.66
activity against UCHL1 (cross-screening) (UCHL1): no activity

Difference (log2 fold change of enrichment) (PPAT; [4]): -0.44
Difference (log2 fold change of enrichment) (SRP68; [4]): -0.40
Difference (log2 fold change of enrichment) (PGAP1; [4]): -2.38
SMILES: N#CN1CC[C@@H](NC(=O)c2cc(-c3ccccc3Oc3ccccc3)n[nH]2)C1 [compound 3, reference compound]
